Reference: patent US9844546B2, “Antibody against human HIF hydroxylase” (OXFORD UNIVERSITY INNOVATION LIMITED, priority 2001, dated 2017)
Each block holds one compound with its values, some of them ahead of it. Where no end group is shown, it is not given here. [ ]: non-standard residue; d: D form. The star is where a group is joined. Biotin = O=C1N[C@H]2[C@H](CS[C@H]2CCCCC(=O)*)N1; Hyp = O=C(O)[C@@H]1C[C@@H](O)CN1

What was measured:
C. elegans = assay: Immunoblot of ceHIF (HIF-1) in extracts of treated worms; type: in vivo; conditions: 200 μM in liquid media, 6 or 16 hrs
Experimental: Immunoblots of ceHIF levels in extracts of c. elegans were carried out to monitor regulation by hypoxia and iron chelation. Firstly, the oxygen dependence of protein induction was analysed. Worms were grown on plates in bell jars flushed with air (N), or with oxygen/balance nitrogen having an oxygen concentration of 5%, 1%, 0.5% or 0.1% for 18 hrs. A graded increase in protein level was seen as the oxygen level was reduced below 5% with the highest level of induction at 0.5 and 0.1% oxygen concentration. The time course of protein induction was then studied. Worms were grown in bell jars flushed with a 0.1% oxygen/balance nitrogen mixture for 0, 4, 8, 16 or 24 hrs before preparation of extracts. […] The time course of protein decay on re-oxygenation was then assessed. Worms were grown in bell jars flushed with air (N) or a 0.1% oxygen/balance nitrogen mixture. Extracts were made either immediately, or after 4 and 8 minutes of re-oxygenation. Decay of ceHIF protein was very rapid on re-oxygenation. […] A time course RNAse protection assay showing cehif mRNA levels in worms exposed to 0.1% oxygen/balance nitrogen for 0, 4, 8, 16 and 24 hrs was carried out. No induction of ceHIF mRNA by hypoxia was seen. […] Induction by iron chelation was also studied in C. elegans. […]

VHL-1 = target: T1, VHL-1 (Caenorhabditis elegans, UniProt Q19213); assay: Peptide blocking of HIF-1 capture by HA.VHL-1 and capture of native VHL-1 by biotinylated peptides; type: binding, C. elegans; conditions: for blocking of capture of pretreated HIF-1 by HA.VHL-1: peptide 1 μM
T1 construct: made in house; host or cells: TNT rabbit reticulocyte lysate, IVTT
T1 sequence (Q19213 1-174): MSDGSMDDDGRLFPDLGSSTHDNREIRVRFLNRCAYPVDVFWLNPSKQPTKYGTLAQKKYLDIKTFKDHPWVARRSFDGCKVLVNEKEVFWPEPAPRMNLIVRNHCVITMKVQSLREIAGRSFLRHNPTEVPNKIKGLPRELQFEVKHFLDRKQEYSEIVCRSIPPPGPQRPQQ
Experimental: For peptide blocking experiments peptides (final conc. 1 μM) were pre-incubated with VHL-1 for 15 min before addition to the interaction.
To test whether hydroxylation of the critical P621 residue in C. elegans HIF-1 could indeed promote binding to VHl-1, we synthesised N-terminal biotinylated peptides corresponding to residues 607-634 of C. elegans HIF-1 that contained either a proline (B28Pro) or a (2S, 4R)-trans-hydroxyproline residue (B28Hyp) at position 621.
Furthermore. […] Finally, to test the importance of prolyl hydroxylation in regulating C. elegans HIF-1 in vivo we exposed worms to the cell-penetrating prolyl hydroxylase inhibitor, dimethyloxalylglycine.

HIF-α/pVHL interaction = assay: Interaction of HIF-1α and pVHL.HA reticulocyte IVTTs, anti-HA co-immunoprecipitation; type: biochemical, human; conditions: 100 μM added to the HIF-1α IVTT
Experimental: ^35S-Methionine labelled […] subunits and pVHL.HA were produced separately by IVTT (in vitro transcription and translation) in reticulocyte lysates. IVTTs were performed under different conditions, mixed, and assayed for interaction by anti-HA co-immunoprecipitation. These in vitro assays allowed analysis of the HIFα/pVHL interaction using the recombinant proteins.
Labelled HIF-1α and pVHL.HA were generated separately in reticulocyte lysates (IVTT), in the presence or absence of Co (II), desferrioxamine, or Fe(II). Lysates were mixed in various combinations, and interactions assayed by anti-HA immunoprecipitation.
• 1. G. L. Semenza, Genes Dev 14, 1983-91. (2000). • 2. N. V. Iyer, et al., Genes Dev. 12, 149-162 (1997). • 3. E. Maltepe, J. V. Schmidt, D. Baunoch, C. A. Bradfield, M. C. Simon, Nature 386, 403-407 (1997). • 4. G. L. Wang, B.-H. Jiang, E. A. Rue, G. L. Semenza, Proc. Natl. Acad. Sci. USA 92, 5510-5514 (1995). • 5. S. Salceda, J. Caro, J. Biol. Chem. 272, 22642-22647 (1997). • 6. L. E. Huang, J. Gu, M. Schau, H. F. Bunn, Proc. Natl. Acad. Sci. USA 95, 7987-7992 (1998). • 7. M. S. Wiesener, et al., Blood 92, 2260-2268 (1998). • 8. P. H. Maxwell, et al., Nature 399, 271-275 (1999). • 9. K. Iwai, et al., Proc. Natl. Acad. Sci. USA 96, 12436-12441 (1999). • 10. J. Lisztwan, G. Imbert, C. Wirbelauer, M. Gstaiger, W. Krek, Genes Dev 13, 1822-33 (1999). • 11. M. E. Cockman, et al., J Biol Chem (2000). • 12. M. Ohh, et al., Nat Cell Biol 2, 423-7. (2000). • 13. T. Kamura, et al., Proc Natl Acad Sci USA 97, 10430-5. (2000). • 14. K. Tanimoto, Y. Makino, T. Pereira, L. Poellinger, Embo J 19, 4298-309. (2000). • 15. M. A. Goldberg, S. P. Dunning, H. F. Bunn, Science 242, 1412-1415 (1988). • 16. G. L. Wang, G. L. Semenza, Blood 82, 3610-3615 (1993). • 17. G. L. Semenza, Cell 98, 281-284 (1999). • 18. Hypoxia (<0.1% oxygen) was obtained in a workstation with O2, CO2 and temperature control (Ruskinn Technologies, Leeds, UK). For hypoxic harvest, buffers were preincubated in the chamber overnight. […]

EGLN-2 and EGLN-3 = assay: Modification and pVHL binding assay with reticulocyte lysate programmed with EGLN-2 or EGLN-3; type: biochemical, human; conditions: desferrioxamine 200 μM, cobaltous chloride 200 μM
Text: Protein containing HIF-1 sequence (amino acids 549-582) was generated in a reticulocyte in vitro transcription translation reaction in the presence of 100 micromolar desferrioxamine, retrieved and then exposed to […] translates containing the putative enzymes as described above. These proteins contain the critical proline (564) which can be modified by hydroxylation and which enables recognition by von Hippel Lindau tumour suppressor protein (pVHL).
The modification of the HIF-1 sequence was assayed by the binding of the HIF-1 to radiolabelled pVHL, generated by in vitro transcription and translation of a pcDNA3 vector containing the human wild type pVHL open reading frame in a rabbit reticulocyte lysate in the presence of ^35S-methionine.
Modification and pVHL binding assays were performed as described above. Rabbit reticulocyte lysate was programmed with pcDNA3 based plasmids containing no insert, an insert encoding the full open reading frame of the human homologue of C. elegans Egl-9 known as EGLN-2, or an insert encoding the full open reading frame of the human homologue known as EGLN-3. Modification was performed in the absence of additives, in the presence of oxalylglycine, oxalylglycine plus 2-oxoglutarate, 200 μM desferrioxamine or 200 μM cobaltous chloride.

Compound: c1ccc(-c2ccccn2)nc1 [2′, 2′ dipyrridyl, reference compound]
ceHIF protein level (C. elegans): striking Induction of ceHIF

Compound: B28Pro: N-terminal biotinylated peptide, residues 607-634 of C. elegans HIF-1, proline at position 621 (Biotin-DDLQWEEPDLSCLAPFVDTYDMMQMDEG)
blocking of capture of pretreated HIF-1 by HA.VHL-1 (VHL-1): not

Enzyme activity (modification of HIF-1 to VHL binding form) (EGLN-2 and EGLN-3): diminished
Compound: CC(=O)N(O)CCCCCNC(=O)CCC(=O)N(O)CCCCCNC(=O)CCC(=O)N(O)CCCCCN [desferrioxamine]
capture of HIF-1α by pVHL.HA (HIF-α/pVHL interaction): greatly diminished capture

Compound: B28Hyp: N-terminal biotinylated peptide, residues 607-634 of C. elegans HIF-1, (2S, 4R)-trans-hydroxyproline at position 621 (Biotin-DDLQWEEPDLSCLA[Hyp]FVDTYDMMQMDEG)
blocking of capture of pretreated HIF-1 by HA.VHL-1 (VHL-1): blocked capture
capture of native VHL-1 from worm extracts (VHL-1; wild type but not vhl-1 mutant worms): captured immunodetectable native VHL-1
